Data from patent US9808528B2, “Protein-polymer-drug conjugates and methods of using same” (priority 2014, dated 2017).
Where a SMILES comes first, the peptide text is derived from it. [ ]: non-standard residue; d: D form. The star is where a group is joined. Dolaproine = CO[C@@H]([C@@H]1CCCN1)[C@@H](C)C(=O)O; Dil = CC[C@H](C)[C@H](NC)[C@@H](CC(=O)O)OC; NMe2Val = CC(C)[C@@H](C(=O)*)N(C)C; NH(3-hydroxypropyl) = OCCCN*

Columns and labels:
[1] = tested on: HL-60; assay: Cell viability assay (Cell Titer-Glo); format: cell-based; conditions: for IC50: CD33 expressing cells, 72 h or 6 days incubation
Procedure: Dose response curves were generated using SoftMax Pro software. IC50 values were determined from four-parameter curve fitting.
CD33 expressing cells HL-60 were passed at a density of 5,000 cells per well and treated with PBRM-polymer-drug conjugate on the same day. After 72 h or 6 days incubation, the cells were analyzed using the same procedure described above.

[2] = tested on: N87; assay: Cell viability assay (Cell Titer-Glo); format: cell-based; conditions: 72 h incubation; AF-HPA as toxin equivalents
Procedure: (§1) PBRM-polymer-drug conjugates were evaluated for their antiproliferation properties in tumor cell lines in vitro using Cell Titer-Glo (Promega Corp). Cells were plated in black walled 96-well plate and allowed to adhere overnight at 37° C. in a humidified atmosphere of 5% CO2. SKBR3, BT474, NCI-N87 cells (HER2 expressing cells), MCF7 cells (HER2 low expressing levels cells) and JIMT1 cells (HER2 medium expression level cells) were plated at a density of 5,000 cells per well. The next day the medium was replaced with 50 μL fresh medium and 50 μL of 2× stocks of PBRM-polymer-drug conjugate, drug polymer conjugate or drug were added to appropriate wells, mixed and incubated for 72 h. Cell Titer-Glo reagent was added to the wells at room temperature and the luminescent signal was measured after 10 min using a SpectraMax M5 plate reader (Molecular Devices). Dose response curves were generated using SoftMax Pro software. IC50 values were determined from four-parameter curve fitting.

[3] = tested on: JIMT1; assay: Cell viability assay (Cell Titer-Glo); format: cell-based; conditions: 72 h incubation; HER2 medium expression level cells; AF-HPA as toxin equivalents
Procedure: as §1

[4] = tested on: BT474; assay: Cell viability assay (Cell Titer-Glo); format: cell-based, human; conditions: 72 h incubation; AF-HPA as toxin equivalents
Procedure: as §1

[5] = tested on: MCF7; assay: Cell viability assay (Cell Titer-Glo); format: cell-based; conditions: 72 h incubation; HER2 low expressing cells; AF-HPA as toxin equivalents
Procedure: as §1

[6] = Mouse tissue distribution after administration of PBRM-polymer-drug conjugates
Procedure: To determine the concentration of the free drug in the sample, the acidified sample was treated with acetonitrile. The free drug was extracted from the supernatant and analyzed by LC-MS/MS.
At 48 hours post administration, the mice were sacrificed and the blood was collected by terminal cardiac.

[7] = tested on: HL-60 cells; assay: Tumor growth response, HL-60 xenograft; format: in vivo, mice
Procedure: Female NCr nu/nu mice were inoculated subcutaneously with HL-60 cells (n=10 for each group). Test compounds or vehicle were dosed IV as a single dose on day 1. Tumor size was measured at the times indicated in FIGS. 1 to 6 using digital calipers. Tumor volume was calculated and was used to determine the delay in tumor growth. Mice were sacrificed when tumors reached a size of 800 to 1500 mm^3. Tumor volumes are reported as the mean±SEM (“standard error of mean”) for each group.
Female NCr nu/nu mice were inoculated subcutaneously with HL-60 cells (n=10 for each group). Test compounds or vehicle were dosed IV as a single dose on day 1. Tumor size was measured at the times indicated in FIG. 3 using digital calipers. Tumor volume was calculated and was used to determine the delay in tumor growth. Mice were sacrificed when tumors reached a size of 2000 mm^3. Tumor volumes are reported as the mean±SEM for each group.

[8] = tested on: NCI-N87 cells; assay: Tumor growth response, NCI-N87 xenograft; format: in vivo, mice
Procedure: (§2) Female CB-17 SCID mice were inoculated subcutaneously with BT474 tumor fragments (n=10 for each group) or JIMT-1 cells (n=10 for each group) or NCI-N87 cells (n=10 for each group). […] Test compounds or vehicle were dosed IV as a single dose on day 1. Tumor size was measured at the times indicated in FIGS. 1 to 6 using digital calipers. Tumor volume was calculated and was used to determine the delay in tumor growth. Mice were sacrificed when tumors reached a size of 800 to 1500 mm^3. Tumor volumes are reported as the mean±SEM (“standard error of mean”) for each group.

[9] = tested on: BT474 tumor fragments; assay: Tumor growth response, BT474 xenograft; format: in vivo, mice
Procedure: as §2

[10] = biological target: hErbB2 (Homo sapiens, UniProt P04626); assay: Ligand binding studies by BIAcore surface plasmon resonance (SPR); conditions: 25° C.; immobilized hErbB2; BioRad ProteOn XPR36
Procedure: The kinetic binding of the PBRM-polymer-drug conjugate to an immobilized receptor is determined by BIAcore SPR. The binding constants for the PBRM in the PBRM-polymer-drug conjugate and PBRM alone can be determined using standard BIAcore procedures.
The kinetic binding of the PBRM-polymer-drug conjugate to an immobilized receptor was determined by BIAcore SPR.

[11] = tested on: SKBR3; assay: Cell viability assay (Cell Titer-Glo); format: cell-based; conditions: 72 h incubation; AF-HPA as toxin equivalents
Procedure: as §1

[12] = tested on: JIMT-1 cells; assay: Tumor growth response, JIMT-1 xenograft; format: in vivo, mice
Procedure: as §2

**Q.** What does the source list for `CC[C@H](C)[C@@H]([C@@H](CC(=O)N1CCC[C@H]1[C@H](OC)[C@@H](C)C(=O)N[C@@H](Cc1ccccc1)C(=O)NCCCO)OC)N(C)C(=O)[C@@H](NC(=O)[C@H](C(C)C)N(C)C)C(C)C` [AF-HPA, Auristatin F-hydroxypropylamide] (NMe2Val-V[Dil][Dolaproine]F-{NH(3-hydroxypropyl)})?
**A.** IC50 [1]: 4.8 nM; IC50 [2]: 0.42 nM; IC50 [3]: 0.86 nM; IC50 [4]: 1.01 nM; IC50 [5]: 4.4 nM; metabolism of unconjugated AF-HPA in plasma (in words) ([6]; in plasma): not converted to AF; metabolism of released unconjugated AF-HPA in tissue (in words) ([6]; in tissue): further metabolized to AF

**Q.** With “Lintuzumab-((EG2-MI (2%)-(10 kDa PHF-BA (30%)-(AF-HPA-Ala (9%)) [Example 8]” as the molecule, how does the “antiproliferative activity compared to control conjugate (in words)” value ([1]; CD33 expressing cell line HL-60) read?
**A.** The value was “higher antiproliferative activity”.

**Q.** What about the IC50 [1] of the same molecule?
**A.** The IC50 was 0.77 nM.

**Q.** What about the “regressions, FIG. 3” value ([7]; 20 mg/kg single IV dose) of the same molecule?
**A.** Its value is 100%.

**Q.** And the “tumor free survival on day 44, FIG. 3” value ([7]; 20 mg/kg single IV dose, day 44)?
**A.** Its value is 70%.

**Q.** And the “tumor volume response (in words), FIG. 3” value ([7]; single IV dose day 1, 20 mg/kg)?
**A.** The value was “reduction of tumor volume”.

**Q.** With “Rituximab-((EG2-MI (2%)-(10 kDa PHF-BA (28%)-(AF-HPA-Ala (9%)) [Example 16]” as the molecule, how does the IC50 [2] read?
**A.** The IC50 was 5.23 nM.

**Q.** What about the IC50 [3] of the same molecule?
**A.** Its IC50 is 1.88 nM.

**Q.** What about the IC50 [4] of the same molecule?
**A.** The IC50 was 3.04 nM.

**Q.** And the IC50 [5]?
**A.** Its IC50 is 27.9 nM.

**Q.** What about the “tumor growth response (in words), FIG. 6” value ([8]; single IV dose, Example 14 at […], Example 16 at 3 mg/kg) of the same molecule?
**A.** Its value is “no effect on tumor growth”.

**Q.** With “Rituximab-((EG2-MI (3%)-(10 kDa PHF-BA (30%)-(AF-HPA-Ala (8%)) [Example 9]” as the molecule, how does the IC50 [1] read?
**A.** The IC50 was 6.74 nM.

**Q.** Which “regressions, FIG. 1” value ([9]; 5 mg/kg single IV dose) does the source give for “Trastuzumab-((EG2-MI (1%))-(10 kDa PHF-GA (29%)-(AF-HPA-Ala (6%)) [Example 13]” here?
**A.** The value was 100%.

**Q.** And the “tumor free survival, FIG. 1” value ([9]; 5 mg/kg single IV dose)?
**A.** Its value is 80%.

**Q.** What about the “tumor volume response (in words), FIG. 1” value ([9]; single IV dose day 1, conjugates […] and 5 mg/kg, trastuzumab 10 mg/kg) of the same molecule?
**A.** Its value is “reduction of tumor volume”.

**Q.** Which IC50 [2] does the source give for “Trastuzumab-((EG2-MI (2%)-(10 kDa PHF-BA (28%)-(AF-HPA-Ala (9%) [Example 14]” here?
**A.** Its IC50 is 0.11 nM.

**Q.** And the “ka (association or affinity rate constant)” value [10]?
**A.** The value was 3.91 ± 0.3 × 10^5 M^−1s^−1.

**Q.** What about the “kd (dissociation rate constant)” value [10] of the same molecule?
**A.** Its value is 2.56 ± 0.1 × 10^−5 s^−1.

**Q.** And the IC50 [11]?
**A.** The IC50 was 0.02 nM.

**Q.** What about the IC50 [3] of the same molecule?
**A.** Its IC50 is 0.13 nM.

**Q.** What about the IC50 [4] of the same molecule?
**A.** The IC50 was 0.07 nM.

**Q.** And the IC50 [5]?
**A.** The IC50 was 28.9 nM.

**Q.** What about the “regressions, FIG. 4A” value ([12]; 2.0 mg/kg single IV dose) of the same molecule?
**A.** Its value is 100%.

**Q.** What about the “tumor free survival, FIG. 4A” value ([12]; 2.0 mg/kg single IV dose) of the same molecule?
**A.** Its value is 100%.

**Q.** And the “tumor volume response (in words), FIG. 4A” value ([12]; single IV dose day 1, Example 14 at 2, 0.67 and 0.3 mg/kg, trastuzumab 20 mg/kg, Kadcyla 20 mg/kg)?
**A.** Its value is “reduction of tumor volume”.

**Q.** Which IC50 [2] does the source give for “Trastuzumab-((EG2-MI (2%)-(10 kDa PHF-BA (28%)-(AF-HPA-Ala (9%) [Example 15]” here?
**A.** Its IC50 is 0.11 nM.

**Q.** And the IC50 [11]?
**A.** The IC50 was 0.01 nM.

**Q.** And the IC50 [3]?
**A.** Its IC50 is 0.12 nM.

**Q.** And the IC50 [4]?
**A.** The IC50 was 0.05 nM.

**Q.** What about the IC50 [5] of the same molecule?
**A.** Its IC50 is 23.5 nM.

**Q.** And the “complete regression out of 10 animals, FIG. 5” value ([8]; 1 mg/kg single IV dose)?
**A.** The value was 1.

**Q.** And the “partial regressions out of 10 animals, FIG. 5” value ([8]; 1 mg/kg single IV dose)?
**A.** Its value is 7.

**Q.** And the “complete responses, FIG. 5” value ([8]; 3 mg/kg single IV dose)?
**A.** Its value is 100.

**Q.** And the “tumor response (in words), FIG. 5” value ([8]; 3 mg/kg single IV dose)?
**A.** The value was “complete regression of tumor volume”.
